From patent US11053213B2, “Pharmaceutical compounds” (ALMAC DISCOVERY LIMITED, priority 2016, dated 2021)

target: USP19 (Homo sapiens (Human), UniProt O94966); assay: USP19 activity assay (fluorescence polarisation, Ubiquitin-Lys-TAMRA substrate); format: biochemical; settings: full-length USP19 2.5 nM, 30 min pre-incubation, Ub substrate 500 nM; average of at least two duplicate experiments
Method: Unless otherwise stated, all other reagents were purchased from Sigma. Enzymatic reactions were conducted in black flat bottom polystyrene 384-well plates (Nunc) and 30 μL total volume. […] Inhibitors were stored as 10 mM DMSO stocks in an inert environment (low humidity, dark, low oxygen, room temperature) using the Storage Pod System and serial dilutions were prepared in buffer just prior to the assay (from 200 μM to 2 pM, 8-18 data point curve). Following incubation at RT for 30 min, the enzymatic reactions were initiated by dispensing the Ub substrate (500 nM, 10 μL). FP was measured every 15 min over a period of 90 min (within the linear range of the assay) using a Synergy 4 plate reader (BioTek) exciting at 530 nm and measuring the amount of parallel and perpendicular light at 575 nm. The FP signal was subsequently normalised to the no compound control.

Chain of USP19 (O94966 whole entry): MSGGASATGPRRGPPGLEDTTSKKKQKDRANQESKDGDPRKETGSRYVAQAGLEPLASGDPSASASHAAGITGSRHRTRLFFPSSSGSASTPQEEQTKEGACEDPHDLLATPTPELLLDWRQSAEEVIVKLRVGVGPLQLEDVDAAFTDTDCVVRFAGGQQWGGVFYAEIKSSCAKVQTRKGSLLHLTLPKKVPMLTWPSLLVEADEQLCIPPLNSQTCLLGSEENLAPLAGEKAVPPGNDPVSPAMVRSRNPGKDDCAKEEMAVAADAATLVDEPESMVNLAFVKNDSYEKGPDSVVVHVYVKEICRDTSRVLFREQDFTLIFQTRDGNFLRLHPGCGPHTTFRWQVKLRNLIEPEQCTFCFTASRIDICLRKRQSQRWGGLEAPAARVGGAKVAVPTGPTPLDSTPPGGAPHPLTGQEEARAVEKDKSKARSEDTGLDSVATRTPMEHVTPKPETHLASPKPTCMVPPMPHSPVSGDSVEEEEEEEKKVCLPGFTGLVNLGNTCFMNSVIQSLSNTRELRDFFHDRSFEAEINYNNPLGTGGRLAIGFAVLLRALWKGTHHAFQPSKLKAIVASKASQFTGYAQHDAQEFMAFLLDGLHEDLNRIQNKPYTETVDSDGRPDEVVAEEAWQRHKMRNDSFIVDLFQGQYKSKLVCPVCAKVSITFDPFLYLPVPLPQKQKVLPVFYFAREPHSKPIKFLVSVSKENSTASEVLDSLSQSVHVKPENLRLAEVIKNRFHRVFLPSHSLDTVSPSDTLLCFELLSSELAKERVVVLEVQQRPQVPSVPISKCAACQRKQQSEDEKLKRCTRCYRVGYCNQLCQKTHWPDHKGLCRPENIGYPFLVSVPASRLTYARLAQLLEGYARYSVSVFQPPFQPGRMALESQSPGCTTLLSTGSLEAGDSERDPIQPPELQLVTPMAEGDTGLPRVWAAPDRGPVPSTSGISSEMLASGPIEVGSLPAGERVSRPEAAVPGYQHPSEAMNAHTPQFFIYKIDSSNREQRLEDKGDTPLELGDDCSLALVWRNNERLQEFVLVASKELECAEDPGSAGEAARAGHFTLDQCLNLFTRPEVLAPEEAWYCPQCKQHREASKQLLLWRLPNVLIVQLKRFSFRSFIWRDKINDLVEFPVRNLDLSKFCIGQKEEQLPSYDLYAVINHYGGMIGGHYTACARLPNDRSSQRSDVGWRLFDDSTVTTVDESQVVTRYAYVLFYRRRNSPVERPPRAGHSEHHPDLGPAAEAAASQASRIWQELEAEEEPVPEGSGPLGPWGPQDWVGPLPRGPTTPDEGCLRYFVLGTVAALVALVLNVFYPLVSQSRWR

Q: `O=C([C@@H]1C[C@@H]1c1ccccc1)N1CCC(O)(Cn2cnc(-c3ccccc3F)cc2=O)CC1` (racemic) [Example 41, rac-6-(2-Fluorophenyl)-3-((4-hydroxy-1-(cis-2-phenylcyclopropanecarbonyl)piperidin-4-yl)methyl)pyrimidin-4(3H)-one] was tested. Which IC50 did it give?
A: The IC50 was 5 to 50 µM.

Q: `CN(C)C(=O)c1cn(CC2(O)CCN(C(=O)c3n[nH]c4ccccc34)CC23CCCC3)c(=O)cc1-c1ccccc1` (stereo not shown) [Example 188, 1-((10-Hydroxy-7-(1H-indazole-3-carbonyl)-7-azaspiro[4.5]decan-10-yl)methyl)-N,N-dimethyl-6-oxo-4-phenyl-1,6-dihydropyridine-3-carboxamide] was tested. Which IC50 did it give?
A: The IC50 was 50 to 250 µM.

Q: `C[C@H](CC(=O)N1CCC(O)(Cn2cc(C#N)c(-c3ccccc3)cc2=O)CC1)c1ccccc1` [Example 114, (R)-1-((4-Hydroxy-1-(3-phenylbutanoyl)piperidin-4-yl)methyl)-6-oxo-4-phenyl-1,6-dihydropyridine-3-carbonitrile] was tested. Which IC50 did it give?
A: Its IC50 is 5 to 50 µM.

Q: Which IC50 does the source give for `CC(C)N(C)C(=O)c1cn(CC2(O)CCN(C(=O)C[C@@H](C)c3ccccc3)CC2)c(=O)cc1-c1ccccc1C#N` [Example 38, (R)-4-(2-Cyanophenyl)-1-((4-hydroxy-1-(3-phenylbutanoyl)piperidin-4-yl)methyl)-N-isopropyl-N-methyl-6-oxo-1,6-dihydropyridine-3-carboxamide] here?
A: Its IC50 is 50 to 250 µM.

Q: How did the IC50 turn out when `CN(C)C(=O)c1cn(CC2(O)CCN(C(=O)C3CCC(C(F)(F)F)C3)CC23CCCC3)c(=O)cc1-c1ccccc1` (stereo not shown) [Example 196, 1-((10-Hydroxy-7-(3-(trifluoromethyl)cyclopentane-1-carbonyl)-7-azaspiro[4.5]decan-10-yl)methyl)-N,N-dimethyl-6-oxo-4-phenyl-1,6-dihydropyridine-3-carboxamide] was run?
A: Its IC50 is 0.5 to 5 µM.

Q: How did the IC50 turn out when `C[C@H](CC1CCCCC1)C(=O)N1CCC(O)(Cn2cc(C(=O)N3CCNCC3)c(-c3ccccc3)cc2=O)C2(CCCCC2)C1` (stereo partly drawn) [Example 238, 1-((2-((R)-3-Cyclohexyl-2-methylpropanoyl)-5-hydroxy-2-azaspiro[5.5]undecan-5-yl)methyl)-4-phenyl-5-(piperazine-1-carbonyl)pyridin-2(1H)-one] was run?
A: Its IC50 is < 0.5 µM.

Q: With `C=C1CCC(C)(C(=O)N2CCC(O)(Cn3cnc(-c4ccccc4F)cc3=O)CC2)CC1` [Example 56, 6-(2-Fluorophenyl)-3-((4-hydroxy-1-(1-methyl-4-methylenecyclohexanecarbonyl)piperidin-4-yl)methyl)pyrimidin-4(3H)-one] as the compound, how does the IC50 read?
A: The IC50 was 5 to 50 µM.

Q: `CC(C)N(C)C(=O)c1cn(CC2(O)CCN(C(=O)C[C@@H](c3ccccc3)C(F)F)CC2)c(=O)cc1-c1ccccc1` [Example 71, (S)-1-((1-(4,4-Difluoro-3-phenylbutanoyl)-4-hydroxypiperidin-4-yl)methyl)-N-isopropyl-N-methyl-6-oxo-4-phenyl-1,6-dihydropyridine-3-carboxamide] was tested. Which IC50 did it give?
A: Its IC50 is 5 to 50 µM.

Q: For `C[C@H](CC1CCCCC1)C(=O)N1CC[C@@](O)(Cn2cc(C(=O)N(C)C)c(-c3ccccc3F)cc2=O)C(C)(C)C1` [Example 205, 1-(((S)-1-((R)-3-Cyclohexyl-2-methylpropanoyl)-4-hydroxy-3,3-dimethylpiperidin-4-yl)methyl)-4-(2-fluorophenyl)-N,N-dimethyl-6-oxo-1,6-dihydropyridine-3-carboxamide], which IC50 is on record?
A: The IC50 was < 0.5 µM.

Q: How did the IC50 turn out when `C[C@H](CC1CCCCC1)C(=O)N1CC[C@@](O)(Cn2cc(C(=O)N3CCNCC3)c(-c3ccccc3F)cc2=O)C2(CCCC2)C1` [Example 227, 1-(((S)-7-((R)-3-Cyclohexyl-2-methylpropanoyl)-10-hydroxy-7-azaspiro[4.5]decan-10-yl)methyl)-4-(2-fluorophenyl)-5-(piperazine-1-carbonyl)pyridin-2(1H)-one] was run?
A: The IC50 was < 0.5 µM.

Q: With `CN(C)C(=O)c1cn(CC2(O)CCN(C(=O)CCC(F)(F)F)CC23CCCC3)c(=O)cc1-c1ccccc1` (stereo not shown) [Example 172, 1-((10-Hydroxy-7-(4,4,4-trifluorobutanoyl)-7-azaspiro[4.5]decan-10-yl)methyl)-N,N-dimethyl-6-oxo-4-phenyl-1,6-dihydropyridine-3-carboxamide] as the compound, how does the IC50 read?
A: The IC50 was 5 to 50 µM.

Q: Which IC50 does the source give for `C[C@H](CC1CCCCC1)C(=O)N1CCC(O)(Cn2cnc(-c3ccnn3C)cc2=O)C(C)(C)C1` (stereo partly drawn) [Example 131, 3-((1-((R)-3-Cyclohexyl-2-methylpropanoyl)-4-hydroxy-3,3-dimethylpiperidin-4-yl)methyl)-6-(1-methyl-1H-pyrazol-5-yl)pyrimidin-4(3H)-one] here?
A: The IC50 was 0.5 to 5 µM.

Q: How did the IC50 turn out when `C[C@H](CC1CCCCC1)C(=O)N1CCC(O)(Cn2cnc(-c3ccccc3)cc2=O)C(C)(C)C1` (mixture of isomers) [Example 50, 3-(((R)-1-((R)-3-Cyclohexyl-2-methylpropanoyl)-4-hydroxy-3,3-dimethylpiperidin-4-yl)methyl)-6-phenylpyrimidin-4(3H)-one and 3-(((S)-1-((R)-3-Cyclohexyl-2-methylpropanoyl)-4-hydroxy-3,3-dimethylpiperidin-4-yl)methyl)-6-phenylpyrimidin-4(3H)-one] was run?
A: The IC50 was < 0.5 µM.

Q: Which IC50 does the source give for `C[C@H](CC1CCC1)C(=O)N1CC[C@@](O)(Cn2cc(C(=O)N3CCNCC3)c(C3CC3)cc2=O)C2(CCCC2)C1` [Example 231, 1-(((S)-7-((R)-3-Cyclobutyl-2-methylpropanoyl)-10-hydroxy-7-azaspiro[4.5]decan-10-yl)methyl)-4-cyclopropyl-5-(piperazine-1-carbonyl)pyridin-2(1H)-one] here?
A: Its IC50 is 0.5 to 5 µM.

Q: How did the IC50 turn out when `CC(C)N(C)C(=O)c1cn(CC2(O)CCN(C(=O)CCC3CCC3)CC2(C)C)c(=O)cc1-c1ccccc1` (racemic) [Example 79, (R,S)-1-((1-(3-Cyclobutylpropanoyl)-4-hydroxy-3,3-dimethylpiperidin-4-yl)methyl)-N-isopropyl-N-methyl-6-oxo-4-phenyl-1,6-dihydropyridine-3-carboxamide] was run?
A: The IC50 was 0.5 to 5 µM.

Q: Which IC50 does the source give for `C[C@H](CC(=O)N1CCC(O)(Cn2cc(-c3cnn(C)c3)c(-c3ccccc3)cc2=O)CC1)c1ccccc1` [Example 109, (R)-1-((4-Hydroxy-1-(3-phenylbutanoyl)piperidin-4-yl)methyl)-5-(1-methyl-1H-pyrazol-4-yl)-4-phenylpyridin-2(1H)-one] here?
A: The IC50 was 50 to 250 µM.

Q: With `C[C@H](CC(=O)N1C[C@H]2CC[C@@H](C1)C2(O)Cn1cnc(-c2ccccc2F)cc1=O)c1ccccc1` (stereo partly shown) [Example 60] as the compound, how does the IC50 read?
A: Its IC50 is 5 to 50 µM.

Q: `CC(C)N(C)C(=O)c1cn(CC2(O)CCN(C(=O)[C@H](C)CC3CCCCC3)CC2(C)C)c(=O)cc1-c1ccccc1` (mixture of isomers) [Example 73, 1-(((R)-1-((R)-3-Cyclohexyl-2-methylpropanoyl)-4-hydroxy-3,3-dimethylpiperidin-4-yl)methyl)-N-isopropyl-N-methyl-6-oxo-4-phenyl-1,6-dihydropyridine-3-carboxamide and 1-(((S)-1-((R)-3-Cyclohexyl-2-methylpropanoyl)-4-hydroxy-3,3-dimethylpiperidin-4-yl)methyl)-N-isopropyl-N-methyl-6-oxo-4-phenyl-1,6-dihydropyridine-3-carboxamide] was tested. Which IC50 did it give?
A: Its IC50 is < 0.5 µM.

Q: Which IC50 does the source give for `C[C@H](CC1CCCCC1)C(=O)N1CC[C@](O)(Cn2cc(C(=O)N(C)C)c(-c3ccccc3)cc2=O)C2(CCCC2)C1` [Example 209, 1-(((R)-7-((R)-3-Cyclohexyl-2-methylpropanoyl)-10-hydroxy-7-azaspiro[4.5]decan-10-yl)methyl)-N,N-dimethyl-6-oxo-4-phenyl-1,6-dihydropyridine-3-carboxamide] here?
A: Its IC50 is 5 to 50 µM.
